Several values for one entry are separate records, joined by “and”; a condition that tells them apart may be missing. Equal entries are not always repeated. Structures can show the parent of a compound that is named as a salt.
System: Rattus norvegicus
Conditions: for LD50: acute
[1] = subchronic, duration: 13 weeks, oral, diet, M/F, Wistar, hematological
[2] = subchronic, duration: 90 days, oral, diet, M/F, Wistar, hematological
[3] = subchronic, duration: 90 days, oral, diet, M/F, Sprague-Dawley, no effects
[4] = subchronic, duration: 90 days, oral, diet
[5] = subchronic, duration: 90 days, oral, diet, M/F, no effects
[6] = subchronic, duration: 13 weeks, oral, gavage, no effects
[7] = subchronic, duration: 90 days, oral, diet, M/F, Sprague-Dawley, histopathology: nonneoplastic
[8] = chronic, duration: 2 years, oral, diet
[9] = subchronic, duration: 90 days, oral, gavage, M/F, hematological

SMILES: O=Cc1ccco1 [Furfural]
- NOEL (subchronic, duration: 90 days, oral, diet, M/F, Fischer 344, hematological): 54 mg/kg-day

SMILES: CCCCC/C=C/C/C=C/CCCCCCCC(=O)O[C@H](COC(=O)CCCCCCCCCCCCCCC)COP(=O)([O-])OCC[N+](C)(C)C [Lecithin]
- NOAEL (chronic, duration: 24 weeks, oral, gavage, Wistar, no effects): 3750 mg/kg-day

SMILES: Cc1ccc2oc(=O)ccc2c1 [6-Methyl coumarin]
- NOEL (subchronic, duration: 13 weeks): 150 mg/kg-day

SMILES: Cc1ccc(C(C)C)cc1 [p-Cymene]
- NOAEL (chronic, duration: 6 months, oral, gavage, F, organ weight): 154 mg/kg-day

SMILES: CC1=C(S)CCO1 [2-methyl-4,5-dihydrofuran-3-thiol]
- NOAEL [1]: 1.4 mg/kg-day
- NOEL [2]: 1.4 mg/kg-day

SMILES: COc1ccc(CCC(=O)c2c(O)cc(O[C@@H]3O[C@H](CO)[C@@H](O)[C@H](O)[C@H]3O[C@@H]3O[C@@H](C)[C@H](O)[C@@H](O)[C@H]3O)cc2O)cc1O [Neohesperidin dihydrochalcone]
- NOAEL (repeat dose other, no effects): 500 mg/kg-day

SMILES: O=C1CN(/N=C/c2ccc([N+](=O)[O-])o2)C(=O)N1 [Nitrofurantoin]
- LEL (reproduction developmental, oral, reproduction): 10 mg/kg-day

SMILES: CC(C)CCCCCCOC(=O)c1ccccc1C(=O)OCCCCCCC(C)C [Diisononyl phthalate]
- NOAEL (chronic, duration: 2 years, M/F, Fischer 344, histopathology: nonneoplastic): 15 mg/kg-day

SMILES: CCC(S)S [1,?1-?Propanedithiol]
- NOAEL [3]: 0.705 mg/kg-day (2×) and 0.703 mg/kg-day (2×)

SMILES: C=C(C)[C@@H]1CC=C(C)CC1 [(S)-Limonene]
- NOAEL (chronic, duration: 103 weeks, oral, gavage, F, mortality): 215 mg/kg-day

SMILES: O=c1[nH]sc2ccccc12 [1,2-Benzisothiazolin-3-one]
- NOAEL (subchronic, duration: 90 days, oral, gavage, M/F, Wistar, histopathology: nonneoplastic): 10 mg/kg-day

SMILES: CC(C)=CCC/C(C)=C/C=C/C(C)=C/C=C/C(C)=C/C=C/C=C(C)/C=C/C=C(C)/C=C/C=C(\C)CCC=C(C)C [all-trans-Lycopene]
- NOAEL (chronic, duration: 1 years, clinical chemistry): 50 mg/kg-day

SMILES: CCCCCC/C=C/C(C)=O [3-Decen-2-one]
- LD50 (oral, mortality): > 5000 mg/kg-day
- NOAEL (developmental, development): ≥ 1000 mg/kg-day

SMILES: O=Cc1cc2ccccc2o1 [2-Benzofurancarboxaldehyde]
- NOEL [4]: 25 mg/kg-day

SMILES: O=C1O[C@H]([C@H](O)CO)C(O)=C1O [Isoascorbic acid]
- NOAEL (chronic, duration: 2 years, oral, drinking water, M/F, Fischer 344, body weight): 650 mg/kg-day

SMILES: CC(=O)SC1=C(C)OCC1 [2-Methyl-3-thioacetoxy-4,5-dihydrofuran]
- NOAEL [1]: 1.4 mg/kg-day
- NOEL [2]: 1.4 mg/kg-day

SMILES: Cc1sc2nc(=O)[nH]c(N)c2c1C [4-Amino-5,6-dimethylthieno(2,3-d)pyrimidin-2(1H)-one]
- NOAEL (subchronic, duration: 13 weeks, oral, diet, M/F, Sprague-Dawley, no effects): 60 mg/kg-day

SMILES: CCC1=C(O)C(=O)C(C)O1 (stereo not given) [3(2H)-Furanone, 5-ethyl-4-hydroxy-2-methyl-]
- NOAEL (chronic, duration: 2 years, M/F, body weight): 200 mg/kg-day

SMILES: OC[C@H]1O[C@H](OC[C@H]2O[C@@H](O)[C@@H](O)[C@@H](O)[C@@H]2O[C@@H]2O[C@H](CO)[C@@H](O)[C@H](O)[C@@H]2O)[C@H](O)[C@@H](O)[C@H]1O [Galactomannan]
- NOEL (short-term, duration: 28 days, M/F, Sprague-Dawley, clinical chemistry): 230 mg/kg-day

SMILES: CCCCCC(C)=O [2-Heptanone]
- NOAEL (subchronic, duration: 13 weeks, oral, gavage, M/F, organ weight): 20 mg/kg-day

SMILES: CC(=O)N[C@@H]([C@@H](O)[C@H](O)[C@H](O)CO)[C@@H](O)CC(=O)C(=O)O [Aceneuramic acid]
- NOAEL (subchronic, duration: 13 weeks, oral, diet, M/F, Crj:CD, food consumption): 493 mg/kg-day

SMILES: CC(=O)c1ccc2ccccc2c1 [2'-Acetonaphthone]
- NOAEL (subchronic, duration: 90 days): 33 mg/kg-day
- NOAEL [5]: 33 mg/kg-day

SMILES: COc1ccc(C=O)cc1OC [Veratraldehyde]
- NOAEL [6]: 400 mg/kg-day

SMILES: O=S([O-])S(=O)(=O)[O-].[Na+].[Na+] [Sodium metabisulfite]
- NOAEL (chronic, duration: 2 years, oral, diet, M/F, histopathology: nonneoplastic): 72 mg/kg-day

SMILES: SCc1ccco1 [2-Furylmethanethiol]
- NOAEL (subchronic, duration: 90 days, oral, gavage, M/F, body weight): 3 mg/kg-day

SMILES: Cc1ccc(C(C)CC=O)o1 (stereo not given) [3-(5-Methyl-2-furyl)butanal]
- NOAEL (subchronic, duration: 90 days, oral, diet, M/F, Crj:CD, clinical signs): 5.9 mg/kg-day

SMILES: Cc1ncc(C[n+]2csc(CCO)c2C)c(N)n1.Cl.[Cl-] [Thiamine hydrochloride]
- NOAEL [4]: 36 mg/kg-day

SMILES: CC(C=O)=Cc1ccccc1 [2-Methylcinnamic aldehyde]
- NOAEL [5]: 220 mg/kg-day

SMILES: CC(C)[C@@H]1CC[C@@H](C)C[C@H]1C(=O)NCCc1ccccn1 (relative stereo)
- NOAEL [7]: 5 mg/kg-day

SMILES: CC=O [Acetaldehyde]
- NOAEL (subchronic, duration: 11 weeks, oral, drinking water, other): 120 mg/kg-day

SMILES: CC(C)=CCC/C(C)=C/CNC(=O)C1CC1 [N-3,7-Dimethyl-2,6-octadienyl cyclopropylcarboxamide, (2E)-]
- NOAEL [5]: 73.3 mg/kg-day

SMILES: C1CCNCC1 [Piperidine]
- NOAEL (subchronic, duration: 90 days, oral, M/F, Sprague-Dawley, clinical chemistry): 5 mg/kg-day

SMILES: C#CCN1C(=O)COc2cc(F)c(N3C(=O)C4=C(CCCC4)C3=O)cc21 [Flumioxazin]
- NOAEL (chronic, duration: 2 years, hematological): 1.8 mg/kg-day
- NOAEL (developmental, development): 3 mg/kg-day
- NOAEL (subchronic, duration: 90 days, oral, hematological): 2.2 mg/kg-day

SMILES: CCCCCCCCCC(C)=O [2-Undecanone]
- NOAEL (subchronic, duration: 90 days, oral, clinical signs): 50 mg/kg-day

SMILES: C=C1CC[C@H]2O[C@]2(C)CC[C@@H]2[C@@H]1CC2(C)C [(-)Carophyllene oxide]
- NOAEL [7]: 109 mg/kg-day

SMILES: C=CC(C)=CCC=C(C)C [beta-Ocimene]
- NOAEL [3]: 44 mg/kg-day

SMILES: O=C1C(c2[nH]c3ccc(S(=O)(=O)[O-])cc3c2O)=Nc2ccc(S(=O)(=O)[O-])cc21.[Na+].[Na+] [C.I. Acid Blue 74]
- NOAEL [8]: 500 mg/kg-day
- NOAEL (chronic, duration: 2 years, oral, diet, growth): 500 mg/kg-day

SMILES: CCCCCCCCCCCC[N+](C)(C)[O-] [N,N-Dimethyldodecylamine-N-oxide]
- NOAEL [8]: 50 mg/kg-day

SMILES: CCCCCCCCCCCCCCCCCC(=O)OC(C)C(=O)OC(C)C(=O)[O-].[Na+] (stereo not given) [Sodium stearoyl lactylate]
- NOAEL (chronic, duration: 1 years, M/F, Wistar, no effects): 2200 mg/kg-day

SMILES: C[C@@H]1O[C@@H](O[C@H]2[C@H](O[C@@H]([C@H](O)[C@@H](O)C=O)[C@H](O)CO)O[C@H](CO)[C@H](O)[C@@H]2O)[C@@H](O)[C@H](O)[C@@H]1O [2'-Fucosyllactose]
- NOAEL (subchronic, duration: 90 days, oral, gavage, M/F, Wistar, organ weight): 2000 mg/kg-day

SMILES: C=CCc1ccc(OC(C)=O)c(OC)c1 [(2-Methoxy-4-prop-2-enylphenyl) acetate]
- NOAEL (subchronic, duration: 90 days, clinical chemistry): 300 mg/kg-day

SMILES: CC1CCCCC1NC(=O)c1c(F)c(F)c(F)c(F)c1F (stereo not given) [2,3,4,5,6-Pentafluoro-N-(2-methylcyclohexyl)benzamide]
- NOAEL (subchronic, duration: 90 days, oral, diet, M/F, Wistar, clinical signs): 55 mg/kg-day

SMILES: [O]=[Ti]=[O] [Titanium dioxide]
- NOAEL (chronic, duration: 103 weeks, oral, diet, M/F, Fischer 344, no effects): 2250 mg/kg-day

SMILES: CC(=O)c1ccccn1 [1-(2-Pyridyl)-1-ethanone]
- NOAEL [9]: 37 mg/kg-day

SMILES: CCOC(=O)CNC(=O)[C@@H]1C[C@H](C)CC[C@H]1C(C)C
- NOAEL [9]: 75 mg/kg-day

SMILES: CC(=O)Nc1ccc(S(=O)(=O)[O-])c2cc(S(=O)(=O)[O-])c(N=Nc3ccc(N=Nc4ccc(S(=O)(=O)[O-])cc4)c4ccc(S(=O)(=O)[O-])cc34)c(O)c12.[Na+].[Na+].[Na+].[Na+] [Black PN]
- NOAEL (chronic, duration: 2 years, oral, diet, M/F, no effects): 500 mg/kg-day

SMILES: C=C1CCC2(C(C)C)CC12 (stereo not given) [Sabinen]
- NOAEL (subchronic, duration: 90 days, oral, diet, M/F, Sprague-Dawley, hematological): 222 mg/kg-day

SMILES: CC1=C(O)C(=O)CO1 [4-Hydroxy-5-methyl-3-furanone]
- NOAEL (chronic, duration: 2 years, oral, diet, M/F, Sprague-Dawley, body weight): 200 mg/kg-day

SMILES: COc1cc(C=O)ccc1O [4-Hydroxy-3-methoxybenzaldehyde]
- NOAEL (chronic, duration: 2 years): 1000 mg/kg-day
- NOAEL [6]: 400 mg/kg-day

SMILES: CCOC(=O)CCCSC(C)=O [Ethyl 4-(acetylthio)butyrate]
- NOEL (subchronic, duration: 13 weeks, oral, diet): 6.5 mg/kg-day
- NOAEL (subchronic, duration: 90 days, oral): 6.63 mg/kg-day
- NOAEL [5]: 6.63 mg/kg-day

SMILES: CC(C)CC1NC(CC(C)C)SC(CC(C)C)S1 (stereo not given) [2,4,6-Triisobutyl-5,6-dihydro-4H-1,3,5-dithiazine]
- NOAEL (subchronic, duration: 90 days, oral, diet, M, histopathology: nonneoplastic): 9.3 mg/kg-day

SMILES: CNC(=O)C(C)(C(C)C)C(C)C [Trimethyl isopropyl butanamide]
- NOEL (chronic, duration: 14 weeks, oral, diet, M/F, histopathology: nonneoplastic): 5 mg/kg-day

SMILES: CCCCOC(=O)CC(CC(=O)OCCCC)(OC(C)=O)C(=O)OCCCC [Acetyl tributyl citrate]
- NOAEL (subchronic, duration: 90 days, oral, body weight): 100 mg/kg-day

SMILES: Cl.N[C@@H](C=O)[C@@H](O)[C@H](O)[C@H](O)CO [Glucosamine hydrochloride]
- NOAEL (chronic, duration: 52 weeks): 2130 mg/kg-day

SMILES: NS(=O)(=O)c1ccccc1C(F)(F)F [2-(Trifluoromethyl)benzenesulfonamide]
- NOAEL (short-term, duration: 28 days, organ weight): 15 mg/kg-day

SMILES: CC(C)(C)C1CCC(O)CC1 (stereo not given) [4-tert-Butylcyclohexanol]
- NOAEL (reproduction developmental, clinical signs): 31.5 mg/kg-day
- NOAEL (short-term, duration: 28 days, clinical signs): 30 mg/kg-day

SMILES: Cn1cc(C(F)(F)F)cc(Cl)c1=O [3-Chloro-1-methyl-5-(trifluoromethyl)pyridin-2-one]
- LD50 (oral, F, Wistar, mortality): 124 mg/kg

SMILES: CC(=O)c1ccc(C)[nH]1 [1-(5-Methyl-1H-pyrrol-2-yl)ethan-1-one]
- NOAEL (subchronic, duration: 90 days, oral, gavage, M, hematological): 48 mg/kg-day

SMILES: CC1=C(/C=C/C(C)=C/C=C/C(C)=C/C=C/C=C(C)/C=C/C=C(\C)C=O)C(C)(C)CCC1 [Apocarotenal]
- NOAEL (subchronic, duration: 13 weeks, histopathology: nonneoplastic): 30 mg/kg-day
- LOAEL (subchronic, duration: 13 weeks, oral, M/F, Sprague-Dawley, histopathology: nonneoplastic): 10 mg/kg-day

SMILES: O=C(/C=C/c1ccc(O)c(O)c1)O[C@H](Cc1ccc(O)c(O)c1)C(=O)O [Rosmarinic acid]
- NOAEL (subchronic, duration: 90 days, oral, gavage, M/F, Sprague-Dawley, no effects): 300 mg/kg-day

SMILES: CCCCC(CC)COC(=O)c1ccccc1C(=O)OCC(CC)CCCC (stereo not given) [Di(2-ethylhexyl) phthalate]
- NOAEL (developmental, Sprague-Dawley, development): 5 mg/kg-day

SMILES: OC1OC[C@@H](O)[C@@H](O)[C@H]1O (stereo partly drawn) [D-Ribose]
- NOAEL (subchronic, duration: 90 days, oral, diet, M/F, Wistar, body weight): 3600 mg/kg-day

SMILES: CCCC(CCC)NC(=O)c1ccc2c(c1)OCO2 [N-(1-Propylbutyl)-1,3-benzodioxole-5-carboxamide]
- NOEL (chronic, duration: 93 days): 20 mg/kg-day
